Assay results reported in ChEMBL document CHEMBL5465560, “Selectivity Literature for EUbOPEN Chemogenomic Library” (2024).
Residue numbers refer to the chain shown, from its start.

Tests used:
[1] = tested on: T1, Receptor-type tyrosine-protein kinase FLT3 (Homo sapiens), P36888 [D835H]; assay: (§1) Selectivity interaction (KinomeScan (DiscoverX)) EUB0000229b FLT3; details: at 1 µM
T1 sequence (whole entry): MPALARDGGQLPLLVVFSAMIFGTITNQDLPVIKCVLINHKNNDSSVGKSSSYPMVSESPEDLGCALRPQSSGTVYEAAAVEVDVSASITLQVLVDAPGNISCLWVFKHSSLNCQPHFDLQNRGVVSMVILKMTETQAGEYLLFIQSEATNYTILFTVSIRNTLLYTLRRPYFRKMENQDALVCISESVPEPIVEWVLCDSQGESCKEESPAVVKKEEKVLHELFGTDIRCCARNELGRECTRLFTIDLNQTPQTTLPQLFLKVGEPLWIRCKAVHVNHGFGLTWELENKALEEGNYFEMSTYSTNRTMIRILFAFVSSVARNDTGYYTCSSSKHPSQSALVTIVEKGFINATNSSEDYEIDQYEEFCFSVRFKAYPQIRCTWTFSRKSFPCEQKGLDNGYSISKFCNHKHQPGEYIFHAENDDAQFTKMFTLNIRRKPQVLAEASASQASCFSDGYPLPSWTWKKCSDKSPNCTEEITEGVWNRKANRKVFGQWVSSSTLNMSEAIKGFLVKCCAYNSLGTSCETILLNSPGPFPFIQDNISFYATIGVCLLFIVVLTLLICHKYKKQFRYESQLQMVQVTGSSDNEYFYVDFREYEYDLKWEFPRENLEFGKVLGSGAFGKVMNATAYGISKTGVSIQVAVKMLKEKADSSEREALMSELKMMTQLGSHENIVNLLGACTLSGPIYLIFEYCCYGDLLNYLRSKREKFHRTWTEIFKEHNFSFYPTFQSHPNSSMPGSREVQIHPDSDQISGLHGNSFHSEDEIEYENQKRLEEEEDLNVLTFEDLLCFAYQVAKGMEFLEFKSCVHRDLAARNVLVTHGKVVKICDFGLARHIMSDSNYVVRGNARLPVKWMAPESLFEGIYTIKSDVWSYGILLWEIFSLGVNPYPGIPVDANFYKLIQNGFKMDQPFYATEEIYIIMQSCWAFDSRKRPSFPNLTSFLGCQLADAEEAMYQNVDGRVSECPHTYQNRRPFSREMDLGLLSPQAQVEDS

[2] = tested on: T2, Receptor-type tyrosine-protein kinase FLT3 (Homo sapiens), P36888 [N841I]; assay: as §1; details: at 1 µM
T2 sequence (whole entry): T1 sequence (whole entry) with H835D, N841I

[3] = tested on: Hepatocyte growth factor receptor (Homo sapiens), P08581 [M1250T]; assay: (§2) Selectivity interaction (KinomeScan (DiscoverX)) EUB0000092b MET; details: at 10 µM
[4] = tested on: Hepatocyte growth factor receptor (Homo sapiens), P08581 [Y1235D]; assay: as §2; details: at 10 µM
Sequence of Hepatocyte growth factor receptor (Homo sapiens), P08581 [Y1235D] (P08581 whole entry Y1235D): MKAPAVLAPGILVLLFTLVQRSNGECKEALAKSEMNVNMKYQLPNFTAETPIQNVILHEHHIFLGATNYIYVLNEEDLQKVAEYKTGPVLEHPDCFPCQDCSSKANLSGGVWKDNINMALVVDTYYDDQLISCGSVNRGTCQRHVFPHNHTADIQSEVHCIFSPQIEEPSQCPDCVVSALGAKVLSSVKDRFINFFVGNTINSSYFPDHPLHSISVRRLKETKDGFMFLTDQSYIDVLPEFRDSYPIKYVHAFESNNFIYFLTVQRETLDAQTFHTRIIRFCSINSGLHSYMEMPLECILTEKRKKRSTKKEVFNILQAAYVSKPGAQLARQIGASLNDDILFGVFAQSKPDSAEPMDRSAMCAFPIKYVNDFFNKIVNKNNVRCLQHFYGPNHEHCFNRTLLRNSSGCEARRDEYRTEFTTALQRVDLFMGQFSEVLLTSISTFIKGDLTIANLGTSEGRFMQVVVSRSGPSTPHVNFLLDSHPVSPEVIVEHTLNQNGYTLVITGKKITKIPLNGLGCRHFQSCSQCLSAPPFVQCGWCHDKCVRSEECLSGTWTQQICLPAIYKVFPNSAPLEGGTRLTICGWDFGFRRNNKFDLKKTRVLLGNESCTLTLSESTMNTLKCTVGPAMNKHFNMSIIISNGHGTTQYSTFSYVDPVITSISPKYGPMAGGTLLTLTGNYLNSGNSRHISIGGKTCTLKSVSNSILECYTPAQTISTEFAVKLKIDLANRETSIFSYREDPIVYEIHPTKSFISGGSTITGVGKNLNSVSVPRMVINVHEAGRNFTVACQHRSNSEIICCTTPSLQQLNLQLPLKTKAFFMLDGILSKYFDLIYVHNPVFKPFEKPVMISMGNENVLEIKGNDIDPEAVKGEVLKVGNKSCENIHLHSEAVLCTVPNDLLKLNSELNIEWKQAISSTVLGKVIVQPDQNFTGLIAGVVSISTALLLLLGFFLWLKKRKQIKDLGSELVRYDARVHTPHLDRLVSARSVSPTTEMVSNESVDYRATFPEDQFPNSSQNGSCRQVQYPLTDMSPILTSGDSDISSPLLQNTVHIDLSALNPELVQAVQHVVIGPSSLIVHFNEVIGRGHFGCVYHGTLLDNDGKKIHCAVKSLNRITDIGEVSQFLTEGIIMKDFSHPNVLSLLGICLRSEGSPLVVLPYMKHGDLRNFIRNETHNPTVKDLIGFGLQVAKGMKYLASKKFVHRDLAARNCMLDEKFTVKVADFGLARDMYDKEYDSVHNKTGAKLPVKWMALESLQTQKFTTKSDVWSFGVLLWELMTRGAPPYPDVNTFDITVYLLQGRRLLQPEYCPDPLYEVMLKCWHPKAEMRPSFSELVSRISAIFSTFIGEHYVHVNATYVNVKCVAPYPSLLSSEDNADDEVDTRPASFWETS

[5] = biological target: Hepatocyte growth factor receptor (Homo sapiens, UniProt P08581); assay: as §2; details: at 10 µM
[6] = biological target: Glycogen synthase kinase-3 alpha (Homo sapiens, UniProt P49840); assay: Selectivity interaction (KinomeScan (DiscoverX)) EUB0000695a GSK3A; details: at 100 nM
Sequence of Glycogen synthase kinase-3 alpha (P49840 2-483 limits assumed): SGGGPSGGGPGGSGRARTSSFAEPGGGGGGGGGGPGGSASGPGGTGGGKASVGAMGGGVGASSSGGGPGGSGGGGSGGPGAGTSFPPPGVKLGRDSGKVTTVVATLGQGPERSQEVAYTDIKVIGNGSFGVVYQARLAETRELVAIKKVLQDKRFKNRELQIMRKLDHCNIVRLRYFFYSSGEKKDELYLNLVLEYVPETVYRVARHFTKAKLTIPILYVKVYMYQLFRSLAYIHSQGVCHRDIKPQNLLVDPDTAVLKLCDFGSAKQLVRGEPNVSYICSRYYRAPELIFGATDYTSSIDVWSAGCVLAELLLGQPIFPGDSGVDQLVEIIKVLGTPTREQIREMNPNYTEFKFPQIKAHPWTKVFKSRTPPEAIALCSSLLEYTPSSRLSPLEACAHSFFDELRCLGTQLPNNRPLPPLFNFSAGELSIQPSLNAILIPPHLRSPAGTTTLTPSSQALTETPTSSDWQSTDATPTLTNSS

Activated CDC42 kinase 1 = Activated CDC42 kinase 1 (Homo sapiens, UniProt Q07912); assay: Selectivity interaction (KinomeScan (DiscoverX)) EUB0000695a TNK2; details: at 100 nM
Sequence of Activated CDC42 kinase 1 (Q07912 whole entry, looked up): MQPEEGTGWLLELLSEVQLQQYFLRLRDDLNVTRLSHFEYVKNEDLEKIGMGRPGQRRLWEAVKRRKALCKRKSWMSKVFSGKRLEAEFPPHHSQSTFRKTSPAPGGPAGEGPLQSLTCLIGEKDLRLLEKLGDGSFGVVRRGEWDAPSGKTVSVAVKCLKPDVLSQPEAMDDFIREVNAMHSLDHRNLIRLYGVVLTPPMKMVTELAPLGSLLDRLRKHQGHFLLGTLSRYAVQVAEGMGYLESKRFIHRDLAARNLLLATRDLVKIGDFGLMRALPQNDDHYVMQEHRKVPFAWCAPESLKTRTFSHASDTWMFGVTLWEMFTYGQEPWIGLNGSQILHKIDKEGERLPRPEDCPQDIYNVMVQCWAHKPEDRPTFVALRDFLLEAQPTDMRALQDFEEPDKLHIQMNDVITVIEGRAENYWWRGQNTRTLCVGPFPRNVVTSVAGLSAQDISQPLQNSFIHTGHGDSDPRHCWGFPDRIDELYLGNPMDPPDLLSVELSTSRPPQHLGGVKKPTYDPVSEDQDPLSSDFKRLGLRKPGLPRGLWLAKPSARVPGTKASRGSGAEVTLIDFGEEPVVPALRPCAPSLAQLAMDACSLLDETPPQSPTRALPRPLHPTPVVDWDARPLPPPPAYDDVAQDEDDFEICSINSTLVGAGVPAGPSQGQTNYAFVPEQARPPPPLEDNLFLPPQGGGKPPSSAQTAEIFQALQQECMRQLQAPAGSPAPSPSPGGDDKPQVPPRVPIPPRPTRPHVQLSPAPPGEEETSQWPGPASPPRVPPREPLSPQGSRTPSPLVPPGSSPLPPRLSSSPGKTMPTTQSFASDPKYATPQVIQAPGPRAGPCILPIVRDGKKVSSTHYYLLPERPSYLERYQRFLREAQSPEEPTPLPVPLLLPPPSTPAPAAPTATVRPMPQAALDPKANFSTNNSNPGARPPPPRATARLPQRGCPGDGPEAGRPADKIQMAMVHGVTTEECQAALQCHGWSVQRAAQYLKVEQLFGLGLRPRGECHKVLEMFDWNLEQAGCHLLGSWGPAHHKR

[7] = biological target: Calcium/calmodulin-dependent protein kinase type II subunit alpha (Homo sapiens, UniProt Q9UQM7); assay: Selectivity interaction (Ambit KINOMEscan and KiNATiv profiling in Jurkat cells) EUB0000090b CAMK2A; format: cell-based; details: at 1 µM
Sequence of Calcium/calmodulin-dependent protein kinase type II subunit alpha (Q9UQM7 whole entry, canonical isoform): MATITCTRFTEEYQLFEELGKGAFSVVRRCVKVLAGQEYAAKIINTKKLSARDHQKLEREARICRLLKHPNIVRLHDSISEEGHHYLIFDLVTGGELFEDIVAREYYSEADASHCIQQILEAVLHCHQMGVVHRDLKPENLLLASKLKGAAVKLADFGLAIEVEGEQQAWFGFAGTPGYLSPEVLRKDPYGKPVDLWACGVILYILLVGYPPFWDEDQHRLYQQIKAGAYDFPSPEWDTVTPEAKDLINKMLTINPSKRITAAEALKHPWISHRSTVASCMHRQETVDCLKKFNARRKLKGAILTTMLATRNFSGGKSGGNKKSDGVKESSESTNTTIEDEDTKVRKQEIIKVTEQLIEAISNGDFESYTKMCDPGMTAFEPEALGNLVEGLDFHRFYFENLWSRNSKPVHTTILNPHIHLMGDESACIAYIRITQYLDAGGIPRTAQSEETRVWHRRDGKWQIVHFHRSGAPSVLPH

[8] = biological target: Casein kinase I isoform alpha (Homo sapiens, UniProt P48729); assay: Selectivity interaction (Ambit KINOMEscan and KiNATiv profiling in Jurkat cells) EUB0000090b CSNK1A1; format: cell-based; details: at 1 µM
Sequence of Casein kinase I isoform alpha (P48729 2-337 limits assumed): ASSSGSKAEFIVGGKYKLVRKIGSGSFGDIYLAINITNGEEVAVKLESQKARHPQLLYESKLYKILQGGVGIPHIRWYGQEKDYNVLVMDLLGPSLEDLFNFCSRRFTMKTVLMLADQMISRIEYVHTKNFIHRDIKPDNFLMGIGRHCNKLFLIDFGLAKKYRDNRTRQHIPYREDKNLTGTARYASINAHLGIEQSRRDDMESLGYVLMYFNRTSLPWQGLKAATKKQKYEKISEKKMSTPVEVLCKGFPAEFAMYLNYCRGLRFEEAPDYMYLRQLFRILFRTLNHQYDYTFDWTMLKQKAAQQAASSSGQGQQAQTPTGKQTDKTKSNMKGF

[9] = biological target: Serine/threonine-protein kinase MARK2 (Homo sapiens) (UniProt Q7KZI7); assay: Selectivity interaction (KinomeScan (DiscoverX)) EUB0001619a MARK2; details: at 1 µM
Sequence of Serine/threonine-protein kinase MARK2 (Homo sapiens) (Q7KZI7 whole entry): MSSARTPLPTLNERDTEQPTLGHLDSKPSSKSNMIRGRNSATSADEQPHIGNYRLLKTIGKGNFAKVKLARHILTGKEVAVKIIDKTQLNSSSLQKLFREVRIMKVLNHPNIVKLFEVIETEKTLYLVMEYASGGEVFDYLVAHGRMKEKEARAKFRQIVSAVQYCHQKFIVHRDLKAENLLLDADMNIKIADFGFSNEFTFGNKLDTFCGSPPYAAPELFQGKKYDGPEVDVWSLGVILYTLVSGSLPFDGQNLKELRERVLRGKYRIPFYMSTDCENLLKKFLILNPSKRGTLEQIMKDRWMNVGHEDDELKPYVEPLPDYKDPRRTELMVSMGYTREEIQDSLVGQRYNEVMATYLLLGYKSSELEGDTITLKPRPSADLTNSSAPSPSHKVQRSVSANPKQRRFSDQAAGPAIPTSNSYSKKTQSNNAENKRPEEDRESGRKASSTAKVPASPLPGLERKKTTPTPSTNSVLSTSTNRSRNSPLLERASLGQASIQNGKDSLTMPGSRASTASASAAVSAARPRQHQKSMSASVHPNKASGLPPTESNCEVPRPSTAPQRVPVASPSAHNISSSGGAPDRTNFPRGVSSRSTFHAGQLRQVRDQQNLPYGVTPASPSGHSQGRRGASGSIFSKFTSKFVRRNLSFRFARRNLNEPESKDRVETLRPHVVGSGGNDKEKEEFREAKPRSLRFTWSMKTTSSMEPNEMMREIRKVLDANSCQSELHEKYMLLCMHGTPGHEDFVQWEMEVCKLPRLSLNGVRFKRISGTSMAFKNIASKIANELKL

Structure (SMILES): COc1cc(N(C)c2ccnc3ccc(C(F)(F)F)cc23)cc(OC)c1OC
- % binding [1]: 90%
- % binding [2]: 84%

Structure (SMILES): CCC(=O)N1CCN(c2ccc(-n3c(=O)ccc4cnc5ccc(-c6cnc7ccccc7c6)cc5c43)cc2C(F)(F)F)CC1
- % of control [3]: 79%
- % of control [4]: 100%
- % of control [5]: 84%

Structure (SMILES): Cc1cc(F)c(C(=O)Nc2cccc(-c3nncn3C(C)C)n2)cc1-n1cnc(C2CC2)c1
- % of control [6]: 80%
- % of control (Activated CDC42 kinase 1): 98%

Structure (SMILES): CN(C)C/C=C/C(=O)Nc1ccc(C(=O)N2CCCC(Nc3ncc(Cl)c(-c4c[nH]c5ccccc45)n3)C2)cc1 (stereo not given)
- % of control [7]: 99%
- % of control [8]: 51%

Structure (SMILES): N#Cc1cccc(-c2c[nH]c3ncnc(N4CCOCC4)c23)c1
- % of control [9]: 43%
